Data from patent publication US8034371B2, “Intranasal compositions” (Archimedes Development Limited, priority 2003, dated 2011).
Where a name gives a salt, the structure may show the parent alone.

How the values were obtained:
[1] = Saturated solubility of zolpidem tartrate in SBE-CD solutions with and without chitosan, UV 296 nm (Example 2); type: physicochemical; conditions: aqueous SBE-CD solution, 18 °C, aqueous with cosolvent or surfactant or cyclodextrin, thermodynamic from solid
Description: A stock solution was prepared containing 400 mg/ml SBE-CD in water and then dilutions made to 100, 150, 200, 250 and 300 mg/ml. Into 2 ml portions of the stock and diluted SBE-CD solutions was dissolved 10 mg of chitosan glutamate (Protasan UPG213, NovaMatrix, Drammen, Norway). To each of these samples of SBE-CD/chitosan solution and to each of six chitosan-free 2 ml samples of SBE-CD solutions were added 140 mg samples of zolpidem tartrate. The samples were left to stir overnight at room temperature (18° C.). If during this time all the drug dissolved, further amounts were added until a suspension was formed (i.e. saturated drug solution formed). After further stirring for up to 72 hours, suspensions were filtered (0.45 μm filter, Gelman, Portsmouth, UK) to recover saturated zolpidem tartrate solutions. The filtrate samples were diluted in water and the UV absorbance at 296 nm measured. By reference to a calibration curve of UV absorbance (296 nm) vs. zolpidem concentration, the concentration of zolpidem in the samples was calculated. Solubility data are presented in Table 2 and presented graphically in FIG. 1.

[2] = Semi-quantitative solubility of zolpidem tartrate in different cyclodextrin solutions (Example 1); type: physicochemical; conditions: aqueous cyclodextrin solution, aqueous with cosolvent or surfactant or cyclodextrin, thermodynamic from solid, room temperature
Description: A semi-quantitative comparison was made of the ability of different cyclodextrins to enhance the aqueous solubility of zolpidem tartrate.
Aqueous solutions were prepared containing 200, 300 and 400 mg/ml of three types of cyclodextrin. These were hydroxypropyl-β-cyclodextrin (HP-CD) (Cavamax® W7 HP Pharma, Wacker, Germany), methylated-β-cyclodextrin (M-CD) (Cavamax® W7 M Pharma, Wacker) and sulfobutylether-β-cyclodextrin (SBE-CD) (Captisol®, CyDex, USA). 25 mg samples of zolpidem tartrate (ZMC, Zheijang, Hangzhou, China) were added to a 0.5 ml portion of each cyclodextrin solution. The mixtures (containing 50 mg/ml drug) were stirred overnight at room temperature. If drug dissolved then more was added. If undissolved drug remained then an additional 0.5 ml of cyclodextrin solution was added and stirring continued. From this experiment an estimate could be made of zolpidem tartrate solubility in the different cyclodextrin solutions.

[3] = Pharmacokinetic performance of intranasal and IV zolpidem formulations in sheep (Example 6); conditions: for Tmax: intranasal, zolpidem dose 20 mg, mean n = 5
Description: A group of five female sheep was used, each weighing around 45 kg. The formulations were administered to a randomised cross-over design. […] This dose was provided by transferring 3.5 ml of the test formulation into a glass bottle, attaching a Valois VP7 spray pump and actuator to the bottle, priming the pump and then administering two 0.1 ml sprays into each nostril.
Blood samples were collected over a 360 minute period following dosing and plasma separated. Plasma samples were assayed by an HPLC method for zolpidem content. Pharmacokinetic parameters were calculated from the plasma data.

Q: With Cc1ccc(-c2nc3ccc(C)cn3c2CC(=O)N(C)C)cc1 [zolpidem tartrate] as the molecule, how does the solubility ([1]; SBE-CD 100 mg/ml, 5 mg/ml chitosan glutamate, read-out: Zolpidem tartrate solubility in presence of 5 mg/ml chitosan glutamate) read?
A: The solubility was 46.2 mg/mL.

Q: What about the solubility ([1]; SBE-CD 100 mg/ml, no chitosan, read-out: Zolpidem tartrate solubility) of the same molecule?
A: The solubility was 41.9 mg/mL.

Q: And the solubility ([1]; SBE-CD 150 mg/ml, 5 mg/ml chitosan glutamate, read-out: Zolpidem tartrate solubility in presence of 5 mg/ml chitosan glutamate)?
A: The solubility was 51.9 mg/mL.

Q: What about the solubility ([1]; SBE-CD 150 mg/ml, no chitosan, read-out: Zolpidem tartrate solubility) of the same molecule?
A: Its solubility is 46.5 mg/mL.

Q: What about the solubility ([1]; SBE-CD 200 mg/ml, 5 mg/ml chitosan glutamate, read-out: Zolpidem tartrate solubility in presence of 5 mg/ml chitosan glutamate) of the same molecule?
A: The solubility was 55.6 mg/mL.

Q: And the solubility ([1]; SBE-CD 200 mg/ml, no chitosan, read-out: Zolpidem tartrate solubility)?
A: The solubility was 57.3 mg/mL.

Q: And the solubility ([1]; SBE-CD 250 mg/ml, 5 mg/ml chitosan glutamate, read-out: Zolpidem tartrate solubility in presence of 5 mg/ml chitosan glutamate)?
A: The solubility was 55.9 mg/mL.

Q: What about the solubility ([1]; SBE-CD 250 mg/ml, no chitosan, read-out: Zolpidem tartrate solubility) of the same molecule?
A: Its solubility is 56.1 mg/mL.

Q: And the solubility ([1]; SBE-CD 300 mg/ml, 5 mg/ml chitosan glutamate, read-out: Zolpidem tartrate solubility in presence of 5 mg/ml chitosan glutamate)?
A: The solubility was 63.7 mg/mL.

Q: What about the solubility ([1]; SBE-CD 300 mg/ml, no chitosan, read-out: Zolpidem tartrate solubility) of the same molecule?
A: Its solubility is 57.5 mg/mL.

Q: And the solubility ([1]; SBE-CD 400 mg/ml, 5 mg/ml chitosan glutamate, read-out: Zolpidem tartrate solubility in presence of 5 mg/ml chitosan glutamate)?
A: Its solubility is 68.1 mg/mL.

Q: What about the solubility ([1]; SBE-CD 400 mg/ml, no chitosan, read-out: Zolpidem tartrate solubility) of the same molecule?
A: The solubility was 69 mg/mL.

Q: And the solubility ([2]; HP-CD 200 mg/ml)?
A: The solubility was 25 to 31 mg/mL.

Q: And the solubility ([2]; HP-CD 300 mg/ml)?
A: The solubility was 31 to 36 mg/mL.

Q: And the solubility ([2]; HP-CD 400 mg/ml)?
A: The solubility was 36 to 50 mg/mL.

Q: What about the solubility ([2]; M-CD 200 mg/ml) of the same molecule?
A: The solubility was 25 to 31 mg/mL.

Q: What about the solubility ([2]; M-CD 300 mg/ml) of the same molecule?
A: The solubility was 31 to 36 mg/mL.

Q: What about the solubility ([2]; M-CD 400 mg/ml) of the same molecule?
A: The solubility was 31 to 36 mg/mL.

Q: And the solubility ([2]; SBE-CD 200 mg/ml)?
A: The solubility was > 50 mg/mL.

Q: What about the solubility ([2]; SBE-CD 300 mg/ml) of the same molecule?
A: Its solubility is 50 to 56 mg/mL.

Q: What about the solubility ([2]; SBE-CD 400 mg/ml) of the same molecule?
A: Its solubility is ~60 mg/mL.

Q: What does the source list for Cc1ccc(-c2nc3ccc(C)cn3c2CC(=O)N(C)C)cc1 [zolpidem, N,N,6-trimethyl-2-(4-methylphenyl)-imidazo[1,2-a]pyridine-3-acetamide]?
A: Tmax ([3]; female, plasma, inhaled or intranasal, 20 mg, Tmax): 13 min; Effect of inclusion of chitosan on bioavailability ([3]; intranasal solution with vs without chitosan): significantly enhanced; Tmax [3]: 16 min
